Measured values published in US5328985A, “Recombinant streptavidin-protein chimeras useful for conjugation of molecules in the immune system” (priority 1991, dated 1994).

System: recombinant streptavidin-Protein A chimeric protein encoded in pTSAPA-2 (streptavidin residues 16-133 fused to Protein A regions E and D; 31.4 kDa subunit …)
Assay: Determination of biotin-binding ability by gel filtration with D-[carbonyl-14C]biotin
Conditions: purified chimeric protein, subunit 31.4 kDa; room temperature, TBS; Sephadex G-25 gel filtration
Procedure: Biotin-binding ability was determined by gel filtration according to Methods Enzymol., 18A:424 (1970) using a Sephadex G-25 desalting column (PD-10; 0.76×5.0 cm, Pharmacia-LKB) and D-[carbonyl-^14 C]biotin (52 mCi/mmol, Amersham). The binding of the chimeric protein to biotin was done at room temperature in TBS containing 0.02% NAN3, and the same solution was used as the eluent.

Q: Which “biotin-binding ability: molecules of biotin bound per subunit” value does the source give for `O=C(O)CCCC[C@@H]1SC[C@@H]2NC(=O)N[C@@H]21` [biotin, D-biotin] here?
A: more than 0.96 molecules of biotin per subunit
